Data published in article PMC5988692, “AZ304, a novel dual BRAF inhibitor, exerts anti-tumour effects in colorectal cancer independently of BRAF genetic status” (British Journal of Cancer, 2018).

How the values were obtained:
A549 cells = assay: Western blot p-ERK and p-p38; assay type: cell-based, human
Method: (§1) For western-blotting in A375, A549 and MC-F7 cell lines, the detailed method was described in ref.[18] […] For western-blot in selected CRC cell lines, the cells were collected after treatment for indicated time and washed twice with cold PBS. Then cells were lysed in 1% Triton lysis buffer (50 mmol/L Tris-HCl, pH 7.4, 10 mmol/L EDTA, 100 mmol/L NaF, 150 mmol/L NaCl, 1% Triton X-100, 1 mmol/L PMSF 1 mmol/L Na3VO4 and 2 μg/mL aprotinin). After sonication and centrifugation, samples were quantified with the Lowry method. Next, all the protein samples were boiled at 95 °C for 5 min with 3× sampling buffer. After that, all the lysate samples were resolved by SDS polyacrylamide gel electrophoresis (SDS-PAGE) and followed by western blotting which means electronically transferred to nitrocellulose membranes. After blocking with 5% skim milk in TBST buffer (10 mM Tris-HCl pH 7.4, 150 mM NaCl, 0.1% Tween 20) at room temperature for 1 h, the blots were incubated with indicated antibodies shaking for 2 h, then overnight at 4 °C. Then the blots were washed four times with TBST buffer, and then incubated with secondary antibodies for 30 min at room temperature. After washing for another four times, the protein bands were detected with enhanced chemiluminescence reagent (SuperSignal Western Pico Chemiluminescent Substrate; Pierce, Rockford, IL, USA) and visualised with the Electrophoresis Gel Imaging Analysis System (DNR Bio-Imaging Systems, Jerusalem, Israel).
(§2) Cells were incubated with DMSO or AZ304 for 75 min and p-ERK levels were determined using a p-ERK antibody based ELISA. […] Cells were incubated with DMSO or AZ304 (±EGF) for 75 min and p-ERK levels were determined using a p-ERK antibody based ELISA. […] (A375: BRAF V600E, A549: RAS MT; MC-F7: BRAF/RAS WT)

MC-F7 cells = assay: Western blot p-ERK and p-p38; assay type: cell-based, human; conditions: MC-F7 (BRAF/RAS WT)
Method: as §1, §2

RKO xenografts = assay: Xenograft study (tumour growth, immunohistochemistry); assay type: in vivo, athymic BALB/c nude mice
Method: (§3) All in vivo experiments were performed in accordance with Institutional Review Board of China Medical University guidelines. Female 4–6 weeks old athymic BALB/c nude mice were purchased from Shanghai SLAC Laboratory Animal Centre (Shanghai, China). RKO/Caco-2 cells (1 × 10^7) in 200 μl PBS were injected subcutaneously into the right scapular region of mice. […] Tumours were measured with a caliper every 2 days, so did body weights. Tumour volume was calculated using the formula V = 1/2 (width^2 × length). Mice were terminated by CO2 inhalation when the tumour diameters reached 1.5 cm, according to the protocol filed with the Guidance of Institutional Animal Care and Use Committee of China Medical University.
(§4) Tumours were formalin-fixed, paraffin-embedded and prepared as described in our previous study for staining with haematoxylin and eosin.[19] […] The staining was evaluated by scanning the entire tissue specimen under low magnification (×10) and confirmed under high magnification (×20 and ×40). The protein expression was visualised and classified based on the percentage of positive cells and the intensity of staining. From each section, five visual fields were randomly selected. The degree of protein expression was based on the percentage of positive cells and the intensity of staining. Staining intensity was scored as 0 (no staining), 1 (low staining), 2 (intermediate staining), and 3 (high staining). For the staining area, ≤5%, 5–25%, 26–50, 51–75% >75% were recorded as 0, 1, 2, 3 and 4 points, respectively. Histological score = staining intensity × staining area. A score 0 was classified as negative (−), 1–4 points as weakly positive (+), 6–12 points as a strong positive (++). Final scores were assigned by two independent pathologists.
(§5) Student’s t-tests were used for statistical analyses. Data are plotted as mean ± SD. […] Tumours were harvested 4 h after dosing on day 10

Caco-2 xenografts = assay: as above; assay type: in vivo, athymic BALB/c nude mice
Method: as §3, §4, §5

BRAF = BRAF (Homo sapiens, UniProt P15056); assay: AlphaScreen kinase assay (MEK1/2 phosphorylation); assay type: biochemical; conditions: wild type BRAF, ATP Km
Chain of BRAF (P15056 457-717 limits assumed): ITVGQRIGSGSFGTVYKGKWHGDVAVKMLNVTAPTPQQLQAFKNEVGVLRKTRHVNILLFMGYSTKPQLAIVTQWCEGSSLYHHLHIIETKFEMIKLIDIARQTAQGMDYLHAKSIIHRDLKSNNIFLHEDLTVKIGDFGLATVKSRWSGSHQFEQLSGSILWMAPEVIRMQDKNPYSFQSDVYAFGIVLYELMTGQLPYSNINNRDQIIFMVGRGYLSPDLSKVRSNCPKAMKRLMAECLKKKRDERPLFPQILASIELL
Method: (§6) For RAF kinases, detailed assay information was described in ref.[18] Briefly, the kinase activity of BRAF WT, BRAF V600E, or CRAF was measured using an AlphaScreen assay (Perkin Elmer, MA) monitoring MEK1/2 phosphorylation at Ser217/221. For CDK2 and CDK4 kinases, activity was also measured by AlphaScreen, monitoring phosphorylation of biotin Rb peptide at Ser780. Similarly, MAP3K7, CSF1R and JAK2 kinase activity was measured by phosphorylation of their biotinylated substrates MKK6 kinase dead protein at Ser271/Thr275, or tyrosine phosphorylation of pEY or Tyk2 Tyr1054/1055 peptides, respectively. CSK, IGF1R, EGFR, FGFR1 and SRC kinase activity was measured using a sandwich ELISA detecting phosphorylated poly EAY peptide with a HRP conjugated phosphotyrosine antibody and TMB substrate, while p38 kinase activity was measured by monitoring phosphorylation of MBP protein with radiolabeled ^33P-ATP in a filter binding format. All assays were screened under respective ATP Km conditions and inhibitor IC50s were derived from either 5 (RAF kinases, CDK2, CDK4, MAP3K7, JAK2), 10 (CSK, IGF1R, EGFR, FGFR1, SRC) or 11 (p38, CSF1R) point compound dose response.

CRAF = CRAF (Homo sapiens, UniProt P04049); assay: AlphaScreen kinase assay (MEK1/2 phosphorylation); assay type: biochemical; conditions: wild type CRAF, ATP Km
Chain of CRAF (P04049 349-609 limits assumed): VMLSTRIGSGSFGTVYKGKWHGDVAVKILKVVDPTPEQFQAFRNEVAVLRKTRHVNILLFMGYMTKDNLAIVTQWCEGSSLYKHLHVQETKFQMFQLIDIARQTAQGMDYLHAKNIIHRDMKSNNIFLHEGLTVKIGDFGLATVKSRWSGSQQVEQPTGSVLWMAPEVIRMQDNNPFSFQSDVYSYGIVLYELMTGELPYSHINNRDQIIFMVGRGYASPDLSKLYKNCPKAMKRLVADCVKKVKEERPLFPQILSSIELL
Method: as §6

BRAFV600E = BRAFV600E (Homo sapiens, UniProt P15056, V600E); assay: AlphaScreen kinase assay (MEK1/2 phosphorylation); assay type: biochemical; conditions: ATP Km
Chain of BRAFV600E (P15056 457-717 V600E limits assumed): as the sequence (P15056 457-717 limits assumed) above, with V144E counted along it
Method: as §6

[1] = RKO xenograft tumours, day 10, 4 h after dosing, score = staining intensity × staining area
[2] = Caco-2 xenograft tumours, day 10, 4 h after dosing, score = staining intensity × staining area

In the case of `COc1ccc2c(Nc3cc(NC(=O)c4cccc(C(C)(C)C#N)c4)ccc3C)ncnc2c1` [AZ304], the “effect on p-p38” value (A549 cells; A549 (RAS MT), 75 min) is reported as “potently inhibited p-p38”, the “effect on p-ERK” value (A549 cells; A549 (wild type BRAF, RAS MT), 75 min, 0.1, 1, 10 and 100 fold of A375 p-ERK EC50) is reported as “concentration dependent reduction of p-ERK” and the “effect on p-p38” value (MC-F7 cells; 75 min) is reported as “potently inhibited p-p38”. The “effect on p-ERK” value (MC-F7 cells; 75 min, 0.1, 1, 10 and 100 fold of A375 p-ERK EC50) was “concentration dependent reduction of p-ERK”, the Ki67 histological score (RKO xenografts; [1]) was 4.8 ±1.10 and the p-AKT histological score (RKO xenografts; [1]) was 4.2 ±2.28. For the same molecule, the p-EGFR histological score (RKO xenografts; [1]) was 10 ±1.87, the p-ERK histological score (RKO xenografts; [1]) was 3.2 ±1.10 and the tumour growth (RKO xenografts; RKO xenograft, AZ304 10 mg/kg oral twice daily, Cetuximab 40 mg/kg i.p. twice per week, 10 days, vs vehicle) was “reduced tumour growth”. It also gave a Ki67 histological score (Caco-2 xenografts; [2]) of 3.2 ±0.84, a p-AKT histological score (Caco-2 xenografts; [2]) of 6.8 ±1.10 and a p-EGFR histological score (Caco-2 xenografts; [2]) of 10.6 ±1.95. For the same molecule, the p-ERK histological score (Caco-2 xenografts; [2]) was 4.8 ±1.10, the tumour growth (Caco-2 xenografts; Caco-2 xenograft, AZ304 10 mg/kg oral twice daily, Cetuximab 40 mg/kg i.p. twice per week, 10 days, vs vehicle) was “reduced tumour growth” and the IC50 (BRAF) was 79 nM. For the same molecule, the IC50 (CRAF) was 68 nM and the IC50 (BRAFV600E) was 38 nM.
